Experimental data published in patent US20260242360A1, “Novel Compound, and Pharmaceutical Composition for Prevention or Treatment of Cancer or Tumors Comprising Same” (Daewoong Pharmaceutical Co., Ltd., priority 2023, published 2026).

Columns and labels:
Assay type in all cases: cell-based
[1] = test system: transcription factor TEAD; test: Activity inhibition test of transcription factor TEAD (ONE-Glo luciferase assay, Hippo Pathway TEAD reporter-MCF7 cell line); settings: Homo sapiens; TEAD Reporter-MCF7 cells, 24 hours treatment, luciferase luminescence
Method: The transcription factor TEAD activity of the compounds prepared in Examples was measured by the ONE-Glo™ Luciferase assay (Promega, Catalog #E6110) method using the Hippo Pathway TEAD reporter-MCF7 recombinant cell line (BPS Bioscience, Catalog #60618).
Specifically, the TEAD Reporter-MCF7 cell line contains the firefly luciferase gene whose expression is regulated under the control of TEAD response elements in the MCF7, which is a human breast cancer cell line. In the cell line, a non-phosphorylated YAP/TAZ exists in the nucleus in a non-stressed condition, which continuously induces expression of the luciferase reporter.
TEAD Reporter-MCF7 cells were prepared in 100 μL of cell culture medium (MEM medium, 10% FBS, 1% P/S, 400 μg/mL Geneticin, 1% […], 1 mM NA pyruvate, 10 μg/mL Insulin) in a white clear bottom 96-well microplate. The prepared plate was incubated in a 5% CO2 incubator at 37° C. for 24 hours, and then the previously prepared compounds of Examples were finally treated at concentrations of 0.0005, 0.005, 0.05, 0.5 and 5 μM, which were repeated three times for all treatment solutions. The plates treated with the compounds of Examples were incubated in a 5% CO2 incubator at 37° C. for 24 hours. 100 μL/well of the substrate aqueous solution containing luciferin was added to a white clear-bottom 96 well microplate, thereby initiating an enzyme reaction. The reaction was performed at room temperature for 5 minutes, and the luminescence (integration time 1000 ms) was measured using a Flexstation3 multi-mode microplate reader. In accordance with the instructions for the ONE-Glo™ Luciferase Assay, the luciferase enzyme activity, which represents the activity of the transcription factor TEAD, was measured by a chemiluminescence method, and the inhibitory activity of the compound according to the present disclosure was calculated. The results of each compound were analyzed using Microsoft Excel, and the IC50 values were calculated by GraphPad Prism software.

NCI-H226 cells = test: Cell growth inhibition test (CellTiter-Glo), NCI-H226; settings: Homo sapiens, NCI-H226 cell line
Method: (§1) The cell growth for the compounds prepared in Examples was measured by CellTiter-Glo® Luminescednt Cell Viability (Promega, Catalog #G7571) method using NCI-H226 (addexbio), NCI-H28 (Korea Cell Line Bank) cell lines. This evaluation method is a method in which when luciferase enzyme is activated by ATP flowing out from living cells, it reacts with a luciferin substrate, and the enzyme activity at this time is measured to confirm cell viability.
(§2) Specifically, NCI-H226, and NCI-H28 cells were prepared in 100 μL of cell culture medium (RPMI medium, 10% FBS, 1% P/S, 4.5 g/L D-Glucose, 2.383 g/L HEPES Buffer, L-Glutamine, 1.5 g/L Sodium Bicarbonate, 110 mg/L Sodium pyruvate) in a white clear bottom 96-well microplate. The prepared plate was incubated in a 5% CO2 incubator at 37° C. for 24 hours, and then the previously prepared compounds of Examples were finally treated at concentrations of 0.0005, 0.005, 0.05, 0.5 and 5 μM, which was repeated three times for all treatment solutions.
(§3) The plates treated with the compounds of Examples were incubated in a 5% CO2 incubator at 37° C. 100 μL/well of the substrate aqueous solution containing luciferin was added to a white clear-bottom 96 well microplate, thereby initiating an enzyme reaction. The reaction was performed at room temperature in the dark for 10 minutes, and the luminescence was measured using a Flexstation3 multi-mode microplate reader. In accordance with the instructions for the CellTiter-Glo™ Luminescednt Cell Viability, the luciferase enzyme activity, which represents the amount of ATP, was measured by a chemiluminescence method, and the inhibitory activity of the compounds according to the present disclosure was calculated. The results of each compound were analyzed using Microsoft Excel, and the IC50 values were calculated using GraphPad Prism software.

NCI-H28 cells = test: Cell growth inhibition test (CellTiter-Glo), NCI-H28; settings: Homo sapiens, NCI-H28 cell line
Method: as §1, §2, §3

Row | Compound | IC50 [1] [nM] | IC50 (NCI-H226 cells) [nM] | IC50 (NCI-H28 cells) [nM]
1 | C=CC(=O)Nc1cc(-c2cn(C)cn2)c2[nH]c(-c3ccc(Cl)cc3)cc2c1 [Example 1, N-(2-(4-chlorophenyl)-7-(1-methyl-1H-imidazol-4-yl)-1H-indol-5-yl)acrylamide] | 9.4 | 21 | > 5000
2 | C=CC(=O)Nc1cc(-c2cn(C)cn2)c2[nH]c(-c3ccc(C(F)(F)F)cc3)cc2c1 [Example 2, N-(7-(1-methyl-1H-imidazol-4-yl)-2-(4-(trifluoromethyl)phenyl)-1H-indol-5-yl)acrylamide] | 39 | 65 | 4140
3 | C=CC(=O)Nc1cc(-c2cn(C)cn2)c2[nH]c(-c3ccc(F)cc3)cc2c1 [Example 3, N-(2-(4-fluorophenyl)-7-(1-methyl-1H-imidazol-4-yl)-1H-indol-5-yl)acrylamide] | 3.5 | 2.5 | 1530
4 | C=CC(=O)Nc1cc(-c2cn(C)cn2)c2[nH]c(-c3ccccc3)cc2c1 [Example 4, N-(7-(1-methyl-1H-imidazol-4-yl)-2-phenyl-1H-indol-5-yl)acrylamide] | 30 | 10 | 4400
5 | C=CC(=O)Nc1cc(-c2cn(C)cn2)c2[nH]c(-c3ccc(F)cc3F)cc2c1 [Example 5, N-(2-(2,4-difluorophenyl)-7-(1-methyl-1H-imidazol-4-yl)-1H-indol-5-yl)acrylamide] | 6.4 | 4.2 | > 5000
6 | C=CC(=O)Nc1cc(-c2cn(C)cn2)c2[nH]c(-c3cc(F)c(F)c(F)c3)cc2c1 [Example 6, N-(7-(1-methyl-1H-imidazol-4-yl)-2-(3,4,5-trifluorophenyl)-1H-indol-5-yl)acrylamide] | 5.9 | 4.4 | 4000
7 | C=CC(=O)Nc1cc(-c2cn(C)cn2)c2[nH]c(-c3ccc(Cl)c(Cl)c3)cc2c1 [Example 8, N-(2-(3,4-dichlorophenyl)-7-(1-methyl-1H-imidazol-4-yl)-1H-indol-5-yl)acrylamide] | 110 | 57 | 950
8 | C=CC(=O)Nc1cc(-c2cn(C)cn2)c2[nH]c(-c3ccc(F)c(F)c3)cc2c1 [Example 9, N-(2-(3,4-difluorophenyl)-7-(1-methyl-1H-imidazol-4-yl)-1H-indol-5-yl)acrylamide] | 20 | 5.3 | 2950
9 | C=CC(=O)Nc1cc(-c2cn(C)cn2)c2[nH]c(-c3cccc(Cl)c3)cc2c1 [Example 10, N-(2-(3-chlorophenyl)-7-(1-methyl-1H-imidazol-4-yl)-1H-indol-5-yl)acrylamide] | 60 | 20 | 2470
10 | C=CC(=O)Nc1cc(-c2cn(C)cn2)c2[nH]c(-c3ccc(Cl)cc3F)cc2c1 [Example 12, N-(2-(4-chloro-2-fluorophenyl)-7-(1-methyl-1H-imidazol-4-yl)-1H-indol-5-yl)acrylamide] | 79 | 22.5 | 2800
11 | C=CC(=O)Nc1cc(-c2cn(C)cn2)c2[nH]c(C3=CCCCC3)cc2c1 [Example 13, N-(2-cyclohexenyl-7-(1-methyl-1H-imidazol-4-yl)-1H-indol-5-yl)acrylamide] | 46 | 22.3 | 3500
12 | C=CC(=O)Nc1cc(-c2cn(C)cn2)c2[nH]c(-c3ccc(F)c(C)c3)cc2c1 [Example 14, N-(2-(4-fluoro-3-methylphenyl)-7-(1-methyl-1H-imidazol-4-yl)-1H-indol-5-yl)acrylamide] | 49 | 25.1 | 2300
13 | Cn1cnc(-c2cc(NS(C)(=O)=O)cc3cc(-c4cccc(C(F)(F)F)c4)[nH]c23)c1 [Example 19, N-(7-(1-methyl-1H-imidazol-4-yl)-2-(3-(trifluoromethyl)phenyl)-1H-indol-5-yl)methanesulfonamide] | 190 | 210 | 438
14 | Cn1cnc(-c2cc(NS(C)(=O)=O)cc3cc(-c4ccc(Cl)cc4)[nH]c23)c1 [Example 21, N-(2-(4-chlorophenyl)-7-(1-methyl-1H-imidazol-4-yl)-1H-indol-5-yl)methanesulfonamide] | 236 | > 5000 | 2220
15 | C=CC(=O)Nc1cc(-c2ccn(C)n2)c2[nH]c(-c3ccc(Cl)cc3)cc2c1 [Example 28, N-(2-(4-chlorophenyl)-7-(1-methyl-1H-pyrazol-3-yl)-1H-indol-5-yl)acrylamide] | 15 | 8.4 | 2300
16 | C=CC(=O)Nc1cc(-c2ccccn2)c2[nH]c(-c3ccc(Cl)c(Cl)c3)cc2c1 [Example 30, N-(2-(3,4-dichlorophenyl)-7-(pyridin-2-yl)-1H-indol-5-yl)acrylamide] | 126 | 339 | 553
17 | C=CC(=O)Nc1cc(-c2ccccn2)c2[nH]c(-c3ccc(F)cc3)cc2c1 [Example 31, N-(2-(4-fluorophenyl)-7-(pyridin-2-yl)-1H-indol-5-yl)acrylamide] | 30 | 12 | 1770
18 | C=CC(=O)Nc1cc(-c2ccn(C)n2)c2[nH]c(-c3ccc(F)cc3)cc2c1 [Example 32, N-(2-(4-fluorophenyl)-7-(1-methyl-1H-pyrazol-3-yl)-1H-indol-5-yl)acrylamide] | 23 | 7.6 | 1360
19 | C=CC(=O)Nc1cc(-c2ccn(C)n2)c2[nH]c(-c3ccc(F)cc3F)cc2c1 [Example 33, N-(2-(2,4-difluorophenyl)-7-(1-methyl-1H-pyrazol-3-yl)-1H-indol-5-yl)acrylamide] | 51 | 24.3 | 4910
20 | Cn1cnc(-c2cc(C(=O)O)cc3cc(-c4ccc(F)cc4)[nH]c23)c1 [Example 35, 2-(4-fluorophenyl)-7-(1-methyl-1H-imidazol-4-yl)-1H-indole-5-carboxylic acid] | 100 | 137 | > 5000
21 | Cn1cnc(-c2cc(C(=O)O)cc3cc(-c4ccc(Cl)cc4)[nH]c23)c1 [Example 37, 2-(4-chlorophenyl)-7-(1-methyl-1H-imidazol-4-yl)-1H-indole-5-carboxylic acid] | 26 | 134 | 759
22 | Cn1cnc(-c2cc(C(=O)O)cc3cc(-c4ccc(Cl)c(F)c4)[nH]c23)c1 [Example 39, 2-(4-chloro-3-fluorophenyl)-7-(1-methyl-1H-imidazol-4-yl)-1H-indole-5-carboxylic acid] | 36 | 21.9 | > 5000
23 | C=CC(=O)Nc1cc(-c2cn(C)cn2)c2[nH]c(-c3cccc(F)c3)cc2c1 [Example 42, N-(2-(3-fluorophenyl)-7-(1-methyl-1H-imidazol-4-yl)-1H-indol-5-yl)acrylamide] | 97 | 4.5 | 2080
24 | Cn1cnc(-c2cc(C(=O)O)cc3cc(-c4ccc(F)c(F)c4)[nH]c23)c1 [Example 43, 2-(3,4-difluorophenyl)-7-(1-methyl-1H-imidazol-4-yl)-1H-indole-5-carboxylic acid] | 54 | 7.8 | > 5000
25 | C=CC(=O)Nc1cc(-c2cn(C)cn2)c2[nH]c(-c3ccc(F)c(Cl)c3)cc2c1 [Example 44, N-(2-(3-chloro-4-fluorophenyl)-7-(1-methyl-1H-imidazol-4-yl)-1H-indol-5-yl)acrylamide] | 37 | 21.7 | 1900
